Measurements taken from the supplement of paper PMC10307832.

compound: CC(C)C[C@@H](C(=O)N[C@H](C(=O)OC1CCCC1)c1ccccc1)[C@H](O)C(=O)NO [Tosedostat] + Nc1nc2[nH]cc(CCc3ccc(C(=O)N[C@@H](CCC(=O)O)C(=O)O)cc3)c2c(=O)[nH]1 [Pemetrexed] (partner 0.2 µM); experiment: relative viability (nuclei count vs DMSO), 5 days (fraction); higher = more cells survive; settings: first compound 0.02 µM
Summary of the method: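 A single step with final 0.05% Triton X-100, 1% formaldehyde and 1 ug/ml Hoechst fixed the cells and stained nuclei 5 days after treatment. Lung cancer cell lines in 1536-well plates had been treated by pin tool the day after seeding with one drug alone or a fixed anchor-drug dose plus five library-drug doses (not always all listed) in √10 steps, and nuclei were counted on 4× images. Relative viability is the ratio of nuclei in treated wells to nuclei in vehicle wells, taken as the median of duplicate plates.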

| Cell Line | relative viability |
| --- | --- |
| NCI-H522 | 1.14 |
| SK-LU-1 | 1 |
| NCI-H1792 | 0.92 |
| NCI-H2087 | 0.682 |
| NCI-H596 | 0.468 |
| NCI-H1355 | 1.03 |
| SW 1573 | 0.972 |
| LCLC-103H | 0.507 |
| NCI-H2405 | 1.02 |
| EMC-BAC-2 | 0.453 |
| NCI-H23 | 0.745 |
| HCC-366 | 0.194 |
| NCI-H1755 | 0.521 |
| NCI-H838 | 0.275 |
| LK-2 | 0.244 |
| NCI-H2347 | 0.443 |
| NCI-H2342 | 0.755 |
| SK-MES-1 | 1.01 |
| H3255 | 0.56 |

| Cell Line | relative viability |
| --- | --- |
| COR-L23 | 0.2 |
| COR-L 105 | 1.16 |
| LU99A | 0.172 |
| ChaGo-K-1 | 0.269 |
| NCI-H2170 | 0.262 |
| NCI-H460 | 0.0658 |
| HOP-62 | 0.34 |
| HCC-44 | 0.69 |
| SW 900 | 0.513 |
| LXF-289 | 0.949 |
| BEN | 0.845 |
| HARA | 0.212 |
| NCI-H1648 | 0.656 |
| HCC-78 | 0.923 |
| NCI-H1395 | 1.04 |
| NCI-H1563 | 0.838 |
| NCI-H1793 | 0.659 |
| NCI-H1944 | 0.626 |
| NCI-H358 | 0.173 |

same assay, conditions: first compound 0.06325 µM

| Cell Line | relative viability |
| --- | --- |
| NCI-H522 | 1.02 |
| SK-LU-1 | 0.9 |
| NCI-H1792 | 0.884 |
| NCI-H2087 | 0.754 |
| NCI-H596 | 0.488 |
| NCI-H1355 | 1.05 |
| SW 1573 | 0.856 |
| LCLC-103H | 0.522 |
| NCI-H2405 | 1.04 |
| EMC-BAC-2 | 0.463 |
| NCI-H23 | 0.702 |
| HCC-366 | 0.183 |
| NCI-H1755 | 0.43 |
| NCI-H838 | 0.254 |
| LK-2 | 0.249 |
| NCI-H2347 | 0.425 |
| NCI-H2342 | 0.776 |
| SK-MES-1 | 1 |
| H3255 | 0.628 |

| Cell Line | relative viability |
| --- | --- |
| COR-L23 | 0.214 |
| COR-L 105 | 0.915 |
| LU99A | 0.165 |
| ChaGo-K-1 | 0.257 |
| NCI-H2170 | 0.29 |
| NCI-H460 | 0.062 |
| HOP-62 | 0.328 |
| HCC-44 | 0.68 |
| SW 900 | 0.527 |
| LXF-289 | 0.978 |
| BEN | 0.893 |
| HARA | 0.248 |
| NCI-H1648 | 0.736 |
| HCC-78 | 1.02 |
| NCI-H1395 | 1.04 |
| NCI-H1563 | 0.99 |
| NCI-H1793 | 0.832 |
| NCI-H1944 | 0.656 |
| NCI-H358 | 0.2 |

same assay, conditions: first compound 0.2 µM

| Cell Line | relative viability |
| --- | --- |
| NCI-H522 | 1.06 |
| SK-LU-1 | 1.05 |
| NCI-H1792 | 0.838 |
| NCI-H2087 | 0.709 |
| NCI-H596 | 0.515 |
| NCI-H1355 | 1.14 |
| SW 1573 | 0.899 |
| LCLC-103H | 0.533 |
| NCI-H2405 | 1.05 |
| EMC-BAC-2 | 0.582 |
| NCI-H23 | 0.691 |
| HCC-366 | 0.285 |
| NCI-H1755 | 0.362 |
| NCI-H838 | 0.255 |
| LK-2 | 0.348 |
| NCI-H2347 | 0.434 |
| NCI-H2342 | 0.846 |
| SK-MES-1 | 1.11 |
| H3255 | 0.625 |

| Cell Line | relative viability |
| --- | --- |
| COR-L23 | 0.202 |
| COR-L 105 | 1.01 |
| LU99A | 0.195 |
| ChaGo-K-1 | 0.275 |
| NCI-H2170 | 0.244 |
| NCI-H460 | 0.0697 |
| HOP-62 | 0.38 |
| HCC-44 | 0.679 |
| SW 900 | 0.527 |
| LXF-289 | 1.05 |
| BEN | 0.997 |
| HARA | 0.222 |
| NCI-H1648 | 0.99 |
| HCC-78 | 0.838 |
| NCI-H1395 | 0.848 |
| NCI-H1563 | 0.797 |
| NCI-H1793 | 0.838 |
| NCI-H1944 | 0.84 |
| NCI-H358 | 0.164 |

same assay, conditions: first compound 0.6325 µM

| Cell Line | relative viability |
| --- | --- |
| NCI-H522 | 1.06 |
| SK-LU-1 | 0.962 |
| NCI-H1792 | 0.935 |
| NCI-H2087 | 0.727 |
| NCI-H596 | 0.497 |
| NCI-H1355 | 0.952 |
| SW 1573 | 0.777 |
| LCLC-103H | 0.494 |
| NCI-H2405 | 0.875 |
| EMC-BAC-2 | 0.626 |
| NCI-H23 | 0.725 |
| HCC-366 | 0.351 |
| NCI-H1755 | 0.484 |
| NCI-H838 | 0.299 |
| LK-2 | 0.274 |
| NCI-H2347 | 0.421 |
| NCI-H2342 | 0.79 |
| SK-MES-1 | 1.14 |
| H3255 | 0.611 |

| Cell Line | relative viability |
| --- | --- |
| COR-L23 | 0.194 |
| COR-L 105 | 0.857 |
| LU99A | 0.212 |
| ChaGo-K-1 | 0.267 |
| NCI-H2170 | 0.348 |
| NCI-H460 | 0.0606 |
| HOP-62 | 0.431 |
| HCC-44 | 0.642 |
| SW 900 | 0.474 |
| LXF-289 | 0.944 |
| BEN | 1.2 |
| HARA | 0.203 |
| NCI-H1648 | 0.966 |
| HCC-78 | 0.895 |
| NCI-H1395 | 0.927 |
| NCI-H1563 | 1.14 |
| NCI-H1793 | 0.849 |
| NCI-H1944 | 0.619 |
| NCI-H358 | 0.143 |

same assay, conditions: first compound 2 µM

| Cell Line | relative viability |
| --- | --- |
| NCI-H522 | 0.979 |
| SK-LU-1 | 0.868 |
| NCI-H1792 | 0.658 |
| NCI-H2087 | 0.612 |
